The values that follow come from PMC7225193, “An Integrated Dialysis Pharmacometric (IDP) Model to Evaluate the Pharmacokinetics in Patients Undergoing Renal Replacement Therapy” (Pharmaceutical Research, 2020).

The conditions of series [1]: cited from earlier work.
For series [2] the following is noted: patients with normal serum albumin concentrations; cited from earlier work. The source says:
Protein binding plays an important role when the RRT clearance is only estimated based on drug characteristics, since it is assumed that only unbound drug can be dialyzed or filtrated. The integrated model allows direct assessment of the RRT clearance without assumptions on the efficacy in dialysis and filtration processes based on the unbound fraction. Moreover, elimination processes, that are independent of dialysis and filtration, e.g. adsorption to the dialysis membrane, can be quantified. RRT clearance of highly protein bound drugs, e.g. teicoplanin presenting a protein binding of >90% in ...

The nature of series [3]: In vitro RRT study of teicoplanin in bovine blood, evaluated with the IDP model. In kind it is in vitro ADME. Here is the method: For all population pharmacokinetic modelling work in this study, NONMEM® (ICON development service, Gaithersburg, MD, version 7.4) was used. The inter-individual variability of the pharmacokinetic parameters was assumed to be log-normally distributed. For the intra-individual, residual variability an additive, proportional or combined error model was used. In the clinical data examples, models were evaluated by graphical and numerical criteria (goodness of fit plots, visual predictive checks and drop in objective function value (dOFV)). The LLP-SIR (log-likelihood-profiling based sampling-importance-resampling) method was employed for the assessment of parameter uncertainty, since a small number of subjects or cases was investigated.
An in vitro study investigating RRT of teicoplanin in bovine blood was evaluated using the IDP model. 51 pre-filter plasma samples and 45 post-filter plasma samples were included. 45 effluent samples were collected which were all below the lower limit of quantification (5 mg/L), which was considered in the analyses by comparison to simulations after estimation. A blood concentration of 25 mg/L using a volume of 2.2–2.5 L was studied. The blood flow rate was set to 250 mL/min and the dialysate flow rate to 500 mL/min without filtration. In five experiments, a polysulphone membrane (n = 3: FX80, Fresenius Medical Company, Austria, n = 2: F60 S, Fresenius Medical Company, Austria), and in one experiment a triacetate membrane (Ni 21 e, Surflux-21E, Nipro Corporation, Japan) was used. The IDP model was used to describe the RRT clearance and adsorption to the dialysis membranes was evaluated.

Some results are limits rather than exact numbers.

With `C[C@@H](O)[C@H]1C(=O)N2C(C(=O)O)=C(S[C@@H]3CN[C@H](CNS(N)(=O)=O)C3)[C@H](C)[C@H]12` [Doripenem, doripenem], the “degradation half-life in stabilizing conditions” value in series [1] is given as > 100 h.
Consider teicoplanin, for which the protein binding in series [2] is on record as > 90%. In addition, in series [3] (bovine blood, 25 mg/L, blood flow 250 mL/min, dialysate flow 500 mL/min, no filtration, IDP model), the CLRRT came out at 76.5 mL/min. In addition, the “FractionAdsorbed (fraction of the RRT clearance mediated via adsorption)” value in series [3] (bovine blood, IDP model) is given as 0.891. In series [3] (bovine blood, IDP model, changing over time), this compound displayed an RRT clearance of 4.59 L/h. In addition, in series [3] (polysulphone membranes, five experiments), the “Ads. capacity polysulfone FX80/F60S” value was 31.2 mg. This compound registered an Adsorption capacity triacetate in series [3] (triacetate membrane Ni 21 e, n = 1 experiment) of 8.6 mg.
